Results taken from patent publication USRE49022E1, “Insecticidal compounds” (SYNGENTA PARTICIPATIONS AG, priority 2013, dated 2022).

Experiments:
Assay type in all cases: in vivo
[1] = test system: Myzus persicae (Green Peach Aphid); assay: Myzus persicae, sucrose solution / Parafilm test; details: 120 h, mixed with sucrose solution under Parafilm, mortality 5 days after infestation
Description: Test compounds were applied by pipette into 24 well plates and mixed with Sucrose solution. Application rate: 12.5 ppm. The plates were closed with a stretched Parafilm. A plastic stencil with 24 holes is placed onto the plate and infested pea seedlings were placed directly on the Parafilm. The infested plate is closed with a gel blotting paper and another plastic stencil and then turned upside down. 5 days after infestation the samples were checked on mortality.

[2] = test system: Myzus persicae (Green Peach Aphid); assay: Myzus persicae, sunflower leaf disc spray test; details: foliar, 144 h, sprayed sunflower leaf discs, aphid population of mixed ages, mortality after 6 DAT
Procedure: Sunflower leaf discs were placed on agar in a 24-well microtiter plate and sprayed with test solutions at an application rate of 200 ppm. After drying, the leaf discs were infested with an aphid population of mixed ages. After an incubation period of 6 DAT, samples were checked for mortality.

[3] = test system: Tetranychus urticae (Two-Spotted Spider Mite); assay: Tetranychus urticae, bean leaf disc spray test; details: foliar, 192 h, sprayed bean leaf discs, mite populations of mixed ages, 8 days
Description: Bean leaf discs on agar in 24-well microtiter plates were sprayed with test solutions at an application rate of 200 ppm. After drying, the leaf discs are infested with mite populations of mixed ages. 8 days later, discs were checked for mortality.

[4] = test system: Diabrotica balteata (Corn Root Worm); assay: Diabrotica balteata, artificial diet MTP test; details: 120 h, 200 ppm (concentration in well 18 ppm), L2 larvae, larval mortality after 5 days
Procedure: A 24-well microtiter plate (MTP) with artificial diet was treated with test solutions at an application rate of 200 ppm (concentration in well 18 ppm) by pipetting. After drying, the MTP's were infested with L2 larvae (6-10 per well). After an incubation period of 5 days, samples were checked for larval mortality The following compound gave at least 80% control of Diabrotica balteata: 1, 2, 3, 4, 5, 6, 7, 8, 9, 10, 11, 12, 13, 14, 15, 16, 17, 18, 19, 20, 21, 22, 23, 24, 25, 26, 27, 28, 29, 30, 31, 32, 33, 34, 35, 36, 37, 38, 39, 40, 41, 42, 43, 44, 45, 46, 47, 48, 49, 50, 51.

[5] = test system: Spodoptera littoralis (Egyptian Cotton Leafworm); assay: Spodoptera littoralis, cotton leaf disc spray test; details: foliar, 72 h, sprayed cotton leaf discs, L1 larvae, 3 days after treatment
Description: Cotton leaf discs were placed on agar in a 24-well microtiter plate and sprayed with test solutions at an application rate of 200 ppm. After drying, the leaf discs were infested with 5 L1 larvae. The samples were checked for mortality 3 days after treatment (DAT).

[6] = test system: Plutella xylostella (Diamond Back Moth); assay: Plutella xylostella, artificial diet MTP test; details: 144 h, 200 ppm (concentration in well 18 ppm), L2 larvae, 6 days
Procedure: 24-well microtiter plate (MTP) with artificial diet was treated with test solutions at an application rate of 200 ppm (concentration in well 18 ppm) by pipetting. After drying, the MTP's were infested with L2 larvae (7-12 per well). After an incubation period of 6 days, samples were checked for larval mortality and growth regulation. The following compound gave at least 80% mortality of Plutella xylostella: 1, 2, 3, 4, 5, 6, 7, 8, 9, 10, 11, 12, 13, 14, 15, 16, 17, 18, 19, 20, 21, 22, 23, 24, 25, 26, 27, 28, 29, 30, 31, 32, 33, 34, 35, 36, 37, 38, 39, 40, 41, 42, 43, 44, 45, 46, 47, 48, 49, 50.

[7] = test system: Thrips tabaci (Onion Thrips); assay: Thrips tabaci, sunflower leaf disc spray test; details: foliar, 168 h, sprayed sunflower leaf discs, mortality after 7 days

CCc1cc(C(F)(C(F)(F)F)C(F)(F)Cl)cc(Br)c1NC(=O)c1cccc(NC(=O)c2ccncc2)c1F (centres unmarked) [Compound 17]
≥ 80%: pest or weed control at 12.5 ppm [1] | pest or weed control at 200 ppm [2] | mortality at 200 ppm [3] | pest or weed control at 200 ppm [4] | mortality at 200 ppm [5] | mortality at 200 ppm [6] | pest or weed control at 200 ppm [7]

CCc1cc(C(F)(C(F)(F)F)C(F)(F)Cl)cc(Br)c1NC(=O)c1cccc(NC(=O)c2cccnc2)c1F (centres unmarked) [Compound 18]
≥ 80%: pest or weed control at 12.5 ppm [1] | pest or weed control at 200 ppm [2] | mortality at 200 ppm [3] | pest or weed control at 200 ppm [4] | mortality at 200 ppm [5] | mortality at 200 ppm [6] | pest or weed control at 200 ppm [7]

CCc1cc(C(F)(C(F)(F)F)C(F)(F)Cl)cc(Br)c1NC(=O)c1cccc(NC(=O)c2ccc(C#N)cc2)c1F (centres unmarked) [Compound 19]
≥ 80%: pest or weed control at 12.5 ppm [1] | pest or weed control at 200 ppm [2] | mortality at 200 ppm [3] | pest or weed control at 200 ppm [4] | mortality at 200 ppm [5] | mortality at 200 ppm [6] | pest or weed control at 200 ppm [7]

CCc1cc(C(F)(C(F)(F)F)C(F)(F)Cl)cc(Br)c1NC(=O)c1cccc(NC(=O)c2ccncc2)c1OC (centres unmarked) [Compound 20]
≥ 80%: pest or weed control at 12.5 ppm [1] | pest or weed control at 200 ppm [2] | mortality at 200 ppm [3] | pest or weed control at 200 ppm [4] | mortality at 200 ppm [5] | mortality at 200 ppm [6] | pest or weed control at 200 ppm [7]

CCc1cc(C(F)(C(F)(F)F)C(F)(F)Cl)cc(Br)c1NC(=O)c1cccc(NC(=O)c2ccc(C#N)cc2)c1OC (centres unmarked) [Compound 22]
≥ 80%: pest or weed control at 12.5 ppm [1] | pest or weed control at 200 ppm [2] | mortality at 200 ppm [3] | pest or weed control at 200 ppm [4] | mortality at 200 ppm [5] | mortality at 200 ppm [6] | pest or weed control at 200 ppm [7]

CCc1cc(C(F)(C(F)(F)F)C(F)(F)Cl)cc(Br)c1NC(=O)c1cccc(NC(=O)c2cc[n+]([O-])cc2)c1F (centres unmarked) [Compound 27]
≥ 80%: pest or weed control at 12.5 ppm [1] | pest or weed control at 200 ppm [2] | mortality at 200 ppm [3] | pest or weed control at 200 ppm [4] | mortality at 200 ppm [5] | mortality at 200 ppm [6] | pest or weed control at 200 ppm [7]

CCc1cc(C(F)(C(F)(F)F)C(F)(F)Cl)cc(Br)c1NC(=O)c1cccc(NC(=O)c2ccc[n+]([O-])c2)c1F (centres unmarked) [Compound 28]
≥ 80%: pest or weed control at 12.5 ppm [1] | pest or weed control at 200 ppm [2] | mortality at 200 ppm [3] | pest or weed control at 200 ppm [4] | mortality at 200 ppm [5] | mortality at 200 ppm [6] | pest or weed control at 200 ppm [7]

CCc1cc(C(F)(C(F)(F)F)C(F)(F)Cl)cc(Br)c1NC(=O)c1cccc(NC(=O)c2cc[n+]([O-])cc2)c1OC (centres unmarked) [Compound 29]
≥ 80%: pest or weed control at 12.5 ppm [1] | pest or weed control at 200 ppm [2] | mortality at 200 ppm [3] | pest or weed control at 200 ppm [4] | mortality at 200 ppm [5] | mortality at 200 ppm [6] | pest or weed control at 200 ppm [7]

CCc1cc(C(F)(C(F)(F)F)C(F)(F)Cl)cc(Br)c1NC(=O)c1cccc(NC(=O)c2ccc[n+]([O-])c2)c1OC (centres unmarked) [Compound 30]
≥ 80%: pest or weed control at 12.5 ppm [1] | pest or weed control at 200 ppm [2] | mortality at 200 ppm [3] | pest or weed control at 200 ppm [4] | mortality at 200 ppm [5] | mortality at 200 ppm [6] | pest or weed control at 200 ppm [7]

CCc1cc(C(F)(C(F)(F)F)C(F)(F)Cl)cc(Br)c1NC(=O)c1cccc(N(CC)C(=O)c2ccc(C#N)cc2)c1F (centres unmarked) [Compound 33]
≥ 80%: pest or weed control at 12.5 ppm [1] | pest or weed control at 200 ppm [2] | mortality at 200 ppm [3] | pest or weed control at 200 ppm [4] | mortality at 200 ppm [5] | mortality at 200 ppm [6] | pest or weed control at 200 ppm [7]

CCc1cc(C(F)(C(F)(F)F)C(F)(F)Cl)cc(Br)c1NC(=O)c1cccc(N(CC)C(=O)c2ccc(C#N)cc2)c1OC (centres unmarked) [Compound 34]
≥ 80%: pest or weed control at 12.5 ppm [1] | pest or weed control at 200 ppm [2] | mortality at 200 ppm [3] | pest or weed control at 200 ppm [4] | mortality at 200 ppm [5] | mortality at 200 ppm [6] | pest or weed control at 200 ppm [7]

CCc1cc(C(F)(C(F)(F)F)C(F)(F)Cl)cc(Br)c1NC(=O)c1cccc(N(CC)C(=O)c2ccncc2)c1F (centres unmarked) [Compound 37]
≥ 80%: pest or weed control at 12.5 ppm [1] | pest or weed control at 200 ppm [2] | mortality at 200 ppm [3] | pest or weed control at 200 ppm [4] | mortality at 200 ppm [5] | mortality at 200 ppm [6] | pest or weed control at 200 ppm [7]

CCc1cc(C(F)(C(F)(F)F)C(F)(F)Cl)cc(Br)c1NC(=O)c1cccc(N(CC)C(=O)c2ccncc2)c1OC (centres unmarked) [Compound 38]
≥ 80%: pest or weed control at 12.5 ppm [1] | pest or weed control at 200 ppm [2] | mortality at 200 ppm [3] | pest or weed control at 200 ppm [4] | mortality at 200 ppm [5] | mortality at 200 ppm [6] | pest or weed control at 200 ppm [7]

CCc1cc(C(F)(C(F)(F)F)C(F)(F)Cl)cc(Br)c1NC(=O)c1cccc(N(CC)C(=O)c2cccnc2)c1OC (centres unmarked) [Compound 42]
≥ 80%: pest or weed control at 12.5 ppm [1] | pest or weed control at 200 ppm [2] | mortality at 200 ppm [3] | pest or weed control at 200 ppm [4] | mortality at 200 ppm [5] | mortality at 200 ppm [6] | pest or weed control at 200 ppm [7]

CCc1cc(C(F)(C(F)(F)F)C(F)(F)Cl)cc(Br)c1NC(=O)c1cccc(N(CC)C(=O)c2cc[n+]([O-])cc2)c1F (centres unmarked) [Compound 45]
≥ 80%: pest or weed control at 12.5 ppm [1] | pest or weed control at 200 ppm [2] | mortality at 200 ppm [3] | pest or weed control at 200 ppm [4] | mortality at 200 ppm [5] | mortality at 200 ppm [6] | pest or weed control at 200 ppm [7]

CCc1cc(C(F)(C(F)(F)F)C(F)(F)Cl)cc(Br)c1NC(=O)c1cccc(N(CC)C(=O)c2cc[n+]([O-])cc2)c1OC (centres unmarked) [Compound 46]
≥ 80%: pest or weed control at 12.5 ppm [1] | pest or weed control at 200 ppm [2] | mortality at 200 ppm [3] | pest or weed control at 200 ppm [4] | mortality at 200 ppm [5] | mortality at 200 ppm [6] | pest or weed control at 200 ppm [7]

CCc1cc(C(F)(C(F)(F)F)C(F)(F)Cl)cc(Br)c1NC(=O)c1cccc(N(CC)C(=O)c2ccc[n+]([O-])c2)c1F (centres unmarked) [Compound 49]
≥ 80%: pest or weed control at 12.5 ppm [1] | pest or weed control at 200 ppm [2] | mortality at 200 ppm [3] | pest or weed control at 200 ppm [4] | mortality at 200 ppm [5] | mortality at 200 ppm [6] | pest or weed control at 200 ppm [7]

CCN(C(=O)c1ccncc1)c1cccc(C(=O)Nc2c(Cl)cc(C(F)(C(F)F)C(F)(F)F)cc2Br)c1OC (centres unmarked) [Compound 51, N-[3-[[2-bromo-6-chloro-4-[1-(difluoromethyl)-1,2,2,2-tetrafluoro-ethyl]phenyl]carbamoyl]-2-methoxy-phenyl]-N-ethyl-pyridine-4-carboxamide]
≥ 80%: pest or weed control at 12.5 ppm [1] | pest or weed control at 200 ppm [2] | mortality at 200 ppm [3] | pest or weed control at 200 ppm [4] | mortality at 200 ppm [5] | pest or weed control at 200 ppm [7]
